Laboratory results from patent publication US12077503B2, “Substituted cyclic amides and their use as herbicides” (FMC CORPORATION, priority 2015, dated 2024).

Tests used:
Type in all cases: in vivo
[1] = tested on: barnyardgrass (Echinochloa crus-galli); assay: Test G Pre-Emergence Protocol; details: Echinochloa crus-galli, pre-emergence, 312 h, evaluated after 13 days; for pest or weed control at 15.625 g/ha: 15.625 g ai/ha; for pest or weed control at 15.625 g/ha / pest or weed control at 250 g/ha: read-out: Barnyardgrass damage rating (100=total damage to plant; 0=no damage to plant); for pest or weed control at 62.5 g/ha: 62.5 g ai/ha, 100=total damage to plant, 0=no damage to plant, read-out: Barnyardgrass damage rating; for pest or weed control at 250 g/ha: 250 g ai/ha
Outline: (§1)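 Pots of seeds in standard soil were grown for one day in a glasshouse (24/16 °C day/night, 14 h light, 65% humidity), then sprayed with compound in acetone/water 50:50 with 0.5% Tween 20 at 15.625, 62.5 or 250 g/ha. Damage was scored after 13 days on a 0 (none) to 100 (total) scale.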

corn (Zea mays) [2] = assay: Test G Pre-Emergence Protocol; details: Zea mays, pre-emergence, 312 h, evaluated after 13 days; for plant injury at 15.625 g/ha: 15.625 g ai/ha; for plant injury at 15.625 g/ha / plant injury at 250 g/ha: read-out: Corn damage rating (100=total damage to plant; 0=no damage to plant); for plant injury at 62.5 g/ha: 62.5 g ai/ha, 100=total damage to plant, 0=no damage to plant, read-out: Corn damage rating; for plant injury at 250 g/ha: 250 g ai/ha
Outline: as §1

[3] = tested on: giant foxtail (Setaria faberi); assay: Test G Pre-Emergence Protocol; details: Setaria faberi, pre-emergence, 312 h, evaluated after 13 days; for pest or weed control at 15.625 g/ha: 15.625 g ai/ha; for pest or weed control at 15.625 g/ha / pest or weed control at 250 g/ha: read-out: Foxtail, Giant damage rating (100=total damage to plant; 0=no damage to plant); for pest or weed control at 62.5 g/ha: 62.5 g ai/ha, 100=total damage to plant, 0=no damage to plant, read-out: Foxtail, Giant damage rating; for pest or weed control at 250 g/ha: 250 g ai/ha
Outline: as §1

[4] = tested on: ivy-leaved morning glory (Ipomoea hederacea); assay: Test G Pre-Emergence Protocol; details: Ipomoea, pre-emergence, 312 h, evaluated after 13 days; for pest or weed control at 15.625 g/ha: 15.625 g ai/ha; for pest or weed control at 15.625 g/ha / pest or weed control at 250 g/ha: read-out: Morningglory, Ivy-leaved damage rating (100=total damage to plant; 0=no damage to plant); for pest or weed control at 62.5 g/ha: 62.5 g ai/ha, 100=total damage to plant, 0=no damage to plant, read-out: Morningglory, Ivy-leaved damage rating; for pest or weed control at 250 g/ha: 250 g ai/ha
Outline: as §1

[5] = tested on: redroot pigweed (Amaranthus retroflexus); assay: Test G Pre-Emergence Protocol; details: Amaranthus retroflexus, pre-emergence, 312 h, evaluated after 13 days; for pest or weed control at 15.625 g/ha: 15.625 g ai/ha; for pest or weed control at 15.625 g/ha / pest or weed control at 250 g/ha: read-out: Pigweed, Redroot damage rating (100=total damage to plant; 0=no damage to plant); for pest or weed control at 62.5 g/ha: 62.5 g ai/ha, 100=total damage to plant, 0=no damage to plant, read-out: Pigweed, Redroot damage rating; for pest or weed control at 250 g/ha: 250 g ai/ha
Outline: as §1

[6] = tested on: velvetleaf (Abutilon theophrasti); assay: Test G Pre-Emergence Protocol; details: Abutilon theophrasti, pre-emergence, 312 h, evaluated after 13 days; for pest or weed control at 15.625 g/ha: 15.625 g ai/ha; for pest or weed control at 15.625 g/ha / pest or weed control at 250 g/ha: read-out: Velvetleaf damage rating (100=total damage to plant; 0=no damage to plant); for pest or weed control at 62.5 g/ha: 62.5 g ai/ha, 100=total damage to plant, 0=no damage to plant, read-out: Velvetleaf damage rating; for pest or weed control at 250 g/ha: 250 g ai/ha
Outline: as §1

[7] = tested on: barnyardgrass (Echinochloa crus-galli); assay: Test G Post-Emergence Protocol; details: Echinochloa crus-galli, post-emergence, 312 h, read-out: Barnyardgrass damage rating; for pest or weed control at 15.625 g/ha: 15.625 g ai/ha, evaluated after 13 days (100=total damage to plant; 0=no damage to plant); for pest or weed control at 62.5 g/ha: 62.5 g ai/ha; for pest or weed control at 62.5 g/ha / pest or weed control at 250 g/ha: evaluated after 13 days, 100=total damage to plant, 0=no damage to plant; for pest or weed control at 250 g/ha: 250 g ai/ha
Outline: (§2)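 A glasshouse post-emergence test: 8-day-old plants sprayed at 15.625, 62.5 or 250 g/ha, then grown at 24/16 °C day/night with 14 h light and 65% humidity. Damage rated 13 days later, 0–100.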

corn (Zea mays) [8] = assay: Test G Post-Emergence Protocol; details: Zea mays, post-emergence, 312 h, read-out: Corn damage rating; for plant injury at 15.625 g/ha: 15.625 g ai/ha, evaluated after 13 days (100=total damage to plant; 0=no damage to plant); for plant injury at 62.5 g/ha: 62.5 g ai/ha; for plant injury at 62.5 g/ha / plant injury at 250 g/ha: evaluated after 13 days, 100=total damage to plant, 0=no damage to plant; for plant injury at 250 g/ha: 250 g ai/ha
Outline: as §2

[9] = tested on: giant foxtail (Setaria faberi); assay: Test G Post-Emergence Protocol; details: Setaria faberi, post-emergence, 312 h, read-out: Foxtail, Giant damage rating; for pest or weed control at 15.625 g/ha: 15.625 g ai/ha, evaluated after 13 days (100=total damage to plant; 0=no damage to plant); for pest or weed control at 62.5 g/ha: 62.5 g ai/ha; for pest or weed control at 62.5 g/ha / pest or weed control at 250 g/ha: evaluated after 13 days, 100=total damage to plant, 0=no damage to plant; for pest or weed control at 250 g/ha: 250 g ai/ha
Outline: as §2

[10] = tested on: ivy-leaved morning glory (Ipomoea hederacea); assay: Test G Post-Emergence Protocol; details: Ipomoea, post-emergence, 312 h, read-out: Morningglory, Ivy-leaved damage rating; for pest or weed control at 15.625 g/ha: 15.625 g ai/ha, evaluated after 13 days (100=total damage to plant; 0=no damage to plant); for pest or weed control at 62.5 g/ha: 62.5 g ai/ha; for pest or weed control at 62.5 g/ha / pest or weed control at 250 g/ha: evaluated after 13 days, 100=total damage to plant, 0=no damage to plant; for pest or weed control at 250 g/ha: 250 g ai/ha
Outline: as §2

[11] = tested on: redroot pigweed (Amaranthus retroflexus); assay: Test G Post-Emergence Protocol; details: Amaranthus retroflexus, post-emergence, 312 h, read-out: Pigweed, Redroot damage rating; for pest or weed control at 15.625 g/ha: 15.625 g ai/ha, evaluated after 13 days (100=total damage to plant; 0=no damage to plant); for pest or weed control at 62.5 g/ha: 62.5 g ai/ha; for pest or weed control at 62.5 g/ha / pest or weed control at 250 g/ha: evaluated after 13 days, 100=total damage to plant, 0=no damage to plant; for pest or weed control at 250 g/ha: 250 g ai/ha
Outline: as §2

[12] = tested on: velvetleaf (Abutilon theophrasti); assay: Test G Post-Emergence Protocol; details: Abutilon theophrasti, post-emergence, 312 h, read-out: Velvetleaf damage rating; for pest or weed control at 15.625 g/ha: 15.625 g ai/ha, evaluated after 13 days (100=total damage to plant; 0=no damage to plant); for pest or weed control at 62.5 g/ha: 62.5 g ai/ha; for pest or weed control at 62.5 g/ha / pest or weed control at 250 g/ha: evaluated after 13 days, 100=total damage to plant, 0=no damage to plant; for pest or weed control at 250 g/ha: 250 g ai/ha
Outline: as §2

SMILES	pest or weed control at 15.625 g/ha [1]	pest or weed control at 62.5 g/ha [1]	pest or weed control at 250 g/ha [1]	plant injury at 15.625 g/ha (corn (Zea mays) [2])	plant injury at 62.5 g/ha (corn (Zea mays) [2])	plant injury at 250 g/ha (corn (Zea mays) [2])	pest or weed control at 15.625 g/ha [3]	pest or weed control at 62.5 g/ha [3]	pest or weed control at 250 g/ha [3]	pest or weed control at 15.625 g/ha [4]	pest or weed control at 62.5 g/ha [4]	pest or weed control at 250 g/ha [4]	pest or weed control at 15.625 g/ha [5]	pest or weed control at 62.5 g/ha [5]	pest or weed control at 250 g/ha [5]	pest or weed control at 15.625 g/ha [6]	pest or weed control at 62.5 g/ha [6]	pest or weed control at 250 g/ha [6]	pest or weed control at 15.625 g/ha [7]	pest or weed control at 62.5 g/ha [7]	other results
Cc1cc(C2CN(C)C(=O)C2C(=O)Nc2cccc(F)c2F)cc(Cl)c1F (stereo not drawn) [Compound 1708]	20%	30%	60%	0%	0%	0%	60%	80%	90%	0%	0%	20%	0%	0%	0%	0%	0%	0%	40%	50%	pest or weed control at 250 g/ha [7]: 80%; plant injury at 15.625 g/ha (corn (Zea mays) [8]): 10%; plant injury at 62.5 g/ha (corn (Zea mays) [8]): 30%; plant injury at 250 g/ha (corn (Zea mays) [8]): 70%; pest or weed control at 15.625 g/ha [9]: 40%; pest or weed control at 62.5 g/ha [9]: 60%; pest or weed control at 250 g/ha [9]: 60%; pest or weed control at 15.625 g/ha [10]: 20%; pest or weed control at 62.5 g/ha [10]: 20%; pest or weed control at 250 g/ha [10]: 20%; pest or weed control at 15.625 g/ha [11]: 0%; pest or weed control at 62.5 g/ha [11]: 0%; pest or weed control at 250 g/ha [11]: 0%; pest or weed control at 15.625 g/ha [12]: 0%; pest or weed control at 62.5 g/ha [12]: 0%; pest or weed control at 250 g/ha [12]: 0%
CN1CC(c2ccc(C(F)(F)F)c(C(F)(F)F)c2)C(C(=O)Nc2cccc(F)c2F)C1=O (stereo not drawn) [Compound 1714]	0%	50%	80%	0%	0%	10%	30%	70%	80%	0%	0%	10%	0%	0%	10%	0%	0%	0%	40%	70%	pest or weed control at 250 g/ha [7]: 80%; plant injury at 15.625 g/ha (corn (Zea mays) [8]): 20%; plant injury at 62.5 g/ha (corn (Zea mays) [8]): 30%; plant injury at 250 g/ha (corn (Zea mays) [8]): 50%; pest or weed control at 15.625 g/ha [9]: 70%; pest or weed control at 62.5 g/ha [9]: 80%; pest or weed control at 250 g/ha [9]: 80%; pest or weed control at 15.625 g/ha [10]: 10%; pest or weed control at 62.5 g/ha [10]: 20%; pest or weed control at 250 g/ha [10]: 60%; pest or weed control at 15.625 g/ha [11]: 70%; pest or weed control at 62.5 g/ha [11]: 80%; pest or weed control at 250 g/ha [11]: 90%; pest or weed control at 15.625 g/ha [12]: 0%; pest or weed control at 62.5 g/ha [12]: 30%; pest or weed control at 250 g/ha [12]: 40%
CCOc1c(Cl)cc(C2CN(C)C(=O)C2C(=O)Nc2cccc(F)c2F)cc1OC (stereo not drawn) [Compound 1721]	0%	50%	80%	10%	0%	0%	30%	60%	90%	0%	0%	0%	0%	0%	0%	0%	0%	0%	0%	30%	pest or weed control at 250 g/ha [7]: 80%; plant injury at 15.625 g/ha (corn (Zea mays) [8]): 0%; plant injury at 62.5 g/ha (corn (Zea mays) [8]): 10%; plant injury at 250 g/ha (corn (Zea mays) [8]): 10%; pest or weed control at 15.625 g/ha [9]: 0%; pest or weed control at 62.5 g/ha [9]: 50%; pest or weed control at 250 g/ha [9]: 80%; pest or weed control at 15.625 g/ha [10]: 0%; pest or weed control at 62.5 g/ha [10]: 40%; pest or weed control at 250 g/ha [10]: 70%; pest or weed control at 15.625 g/ha [11]: 0%; pest or weed control at 62.5 g/ha [11]: 0%; pest or weed control at 250 g/ha [11]: 0%; pest or weed control at 15.625 g/ha [12]: 0%; pest or weed control at 62.5 g/ha [12]: 0%; pest or weed control at 250 g/ha [12]: 0%
